# According to PubChem BioAssay (NCI):
#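 Method: 48-hour compound exposure of cells in 96-well plates, five concentrations, linear interpolation of endpoints. Abbreviation: GI50, concentration required for 50% inhibition of growth. The concentration for full growth arrest is given as TGI.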
# What was measured:
# Experiment in all cases: NCI anticancer screen, dose series, 48 h
# [1] = system: A549 NSCLC
# [2] = system: ACHN renal
# [3] = system: BT-549 breast
# [4] = system: CAKI-1 renal
# [5] = system: CCRF-CEM leukemia
# [6] = system: COLO 205 colon
# [7] = system: DU-145 prostate
# [8] = system: EKVX NSCLC
# [9] = system: HCC-2998 colon
# [10] = system: HCT-116 colon
# [11] = system: HCT-15 colon
# [12] = system: HL-60(TB) leukemia
# [13] = system: HOP-92 NSCLC
# [14] = system: HS 578T breast
# [15] = system: HT29 colon
# [16] = system: IGROV1 ovarian
# [17] = system: K-562 leukemia
# [18] = system: KM12 colon
# [19] = system: M14 melanoma
# [20] = system: MCF7 breast
# [21] = system: MDA-MB-231 breast
# [22] = system: MDA-MB-435
# [23] = system: MOLT-4 leukemia
# [24] = system: NCI-H23 lung
# [25] = system: NCI-H460 lung
# [26] = system: NCI-H522 lung
# [27] = system: NCI/ADR-RES ovarian
# [28] = system: OVCAR-3 ovarian
# [29] = system: OVCAR-4 ovarian
# [30] = system: OVCAR-5 ovarian
# [31] = system: OVCAR-8 ovarian
# [32] = system: RPMI-8226 leukemia
# [33] = system: RXF 393 renal
# [34] = system: SF-268 CNS
# [35] = system: SF-295 CNS
# [36] = system: SF-539 CNS
# [37] = system: SK-MEL-2 melanoma
# [38] = system: SK-MEL-28 melanoma
# [39] = system: SK-MEL-5 melanoma
# [40] = system: SK-OV-3 ovarian
# [41] = system: SN12C renal
# [42] = system: SNB-19 CNS
# [43] = system: SNB-75 CNS
# [44] = system: SR leukemia
# [45] = system: SW-620 colon
# [46] = system: T-47D breast
# [47] = system: TK-10 renal
# [48] = system: U251 CNS
# [49] = system: UACC-257 melanoma
# [50] = system: UACC-62 melanoma
# [51] = system: UO-31 renal
# [52] = system: 786-0 renal
# [53] = system: A498 renal
# [54] = system: HOP-62 NSCLC
# [55] = system: MALME-3M melanoma
# [56] = system: NCI-H226 lung
# [57] = system: PC-3 prostate
compound,measurement,setting,value
CCOC(=O)/C(=N/Nc1ccc(C)cc1)N1C(=S)C=C(C)NN(C)C1=S,TGI,[1],> 100 µM
same,TGI,[2],> 100 µM
same,TGI,[3],> 100 µM
same,TGI,[4],> 100 µM
same,TGI,[5],> 100 µM
same,TGI,[6],> 100 µM
same,TGI,[7],> 100 µM
same,TGI,[8],> 100 µM
same,TGI,[9],> 100 µM
same,TGI,[10],> 100 µM
same,TGI,[11],> 100 µM
same,TGI,[12],> 100 µM
same,TGI,[13],> 100 µM
same,TGI,[14],> 100 µM
same,TGI,[15],> 100 µM
same,TGI,[16],> 100 µM
same,TGI,[17],> 100 µM
same,TGI,[18],> 100 µM
same,TGI,[19],> 100 µM
same,TGI,[20],> 100 µM
same,TGI,[21],> 100 µM
same,TGI,[22],> 100 µM
same,TGI,[23],> 100 µM
same,TGI,[24],> 100 µM
same,TGI,[25],> 100 µM
same,TGI,[26],> 100 µM
same,TGI,[27],> 100 µM
same,TGI,[28],> 100 µM
same,TGI,[29],> 100 µM
same,TGI,[30],> 100 µM
same,TGI,[31],> 100 µM
same,TGI,[32],> 100 µM
same,TGI,[33],83.7 µM
same,TGI,[34],> 100 µM
same,TGI,[35],39.3 µM
same,TGI,[36],> 100 µM
same,TGI,[37],> 100 µM
same,TGI,[38],> 100 µM
same,TGI,[39],> 100 µM
same,TGI,[40],> 100 µM
same,TGI,[41],> 100 µM
same,TGI,[42],> 100 µM
same,TGI,[43],> 100 µM
same,TGI,[44],> 100 µM
same,TGI,[45],> 100 µM
same,TGI,[46],> 100 µM
same,TGI,[47],> 100 µM
same,TGI,[48],55.5 µM
same,TGI,[49],> 100 µM
same,TGI,[50],> 100 µM
same,TGI,[51],> 100 µM
COc1cc(/C=C2\CN(S(=O)(=O)c3ccc(C)cc3)C/C(=C\c3cc(CN4CCOCC4)c(O)c(OC)c3)C2=O)cc(CN2CCOCC2)c1O,GI50,[52],17.9 µM
same,TGI,[52],59.4 µM
same,GI50,[53],12.4 µM
same,TGI,[53],54.4 µM
same,GI50,[1],13 µM
same,TGI,[1],> 100 µM
same,GI50,[2],1.47 µM
same,TGI,[2],22.5 µM
same,GI50,[3],17.6 µM
same,TGI,[3],67.2 µM
same,GI50,[4],1.53 µM
same,TGI,[4],> 100 µM
same,GI50,[5],0.513 µM
same,TGI,[5],> 100 µM
same,GI50,[6],1.66 µM
same,TGI,[6],> 100 µM
same,GI50,[7],0.928 µM
same,TGI,[7],> 100 µM
same,GI50,[8],16.9 µM
same,TGI,[8],92.5 µM
same,GI50,[9],2.05 µM
same,TGI,[9],21.7 µM
same,GI50,[10],3.25 µM
same,TGI,[10],> 100 µM
same,GI50,[11],1.9 µM
same,TGI,[11],> 100 µM
same,GI50,[12],0.853 µM
same,TGI,[12],27.4 µM
same,GI50,[54],0.652 µM
same,TGI,[54],38 µM
same,GI50,[13],17.6 µM
same,TGI,[13],71.8 µM
same,GI50,[14],0.721 µM
same,TGI,[14],19.8 µM
same,GI50,[15],0.346 µM
same,TGI,[15],> 100 µM
same,GI50,[16],1.09 µM
same,TGI,[16],22.8 µM
same,GI50,[17],0.561 µM
same,TGI,[17],> 100 µM
same,GI50,[18],0.377 µM
same,TGI,[18],25.5 µM
same,GI50,[19],0.689 µM
same,TGI,[19],> 100 µM
same,GI50,[55],1.75 µM
same,TGI,[55],65.8 µM
same,GI50,[20],0.394 µM
same,TGI,[20],> 100 µM
same,GI50,[21],2.27 µM
same,TGI,[21],92.5 µM
same,GI50,[23],0.321 µM
same,TGI,[23],> 100 µM
same,GI50,[56],12.7 µM
same,TGI,[56],85.8 µM
same,GI50,[24],3.31 µM
same,TGI,[24],> 100 µM
same,GI50,[25],0.337 µM
same,TGI,[25],2.52 µM
same,GI50,[26],2.34 µM
same,TGI,[26],32.6 µM
same,GI50,[27],55 µM
same,TGI,[27],> 100 µM
same,GI50,[28],0.611 µM
same,TGI,[28],> 100 µM
same,GI50,[29],4.11 µM
same,TGI,[29],> 100 µM
same,GI50,[30],> 100 µM
same,TGI,[30],> 100 µM
same,GI50,[31],0.323 µM
same,TGI,[31],> 100 µM
same,GI50,[57],1.24 µM
same,TGI,[57],> 100 µM
same,GI50,[32],2.34 µM
same,TGI,[32],> 100 µM
same,GI50,[33],2.81 µM
same,TGI,[33],29.5 µM
same,GI50,[34],0.935 µM
same,TGI,[34],81.2 µM
same,GI50,[35],12.5 µM
same,TGI,[35],40.2 µM
same,GI50,[36],7.21 µM
same,TGI,[36],33 µM
same,GI50,[37],21.9 µM
same,TGI,[37],65.1 µM
same,GI50,[38],4.85 µM
same,TGI,[38],> 100 µM
same,GI50,[39],4.15 µM
same,TGI,[39],> 100 µM
same,GI50,[40],7.89 µM
same,TGI,[40],56.5 µM
same,GI50,[41],0.524 µM
same,TGI,[41],15.5 µM
same,GI50,[42],15.8 µM
same,TGI,[42],> 100 µM
same,GI50,[43],0.527 µM
same,TGI,[43],19.1 µM
same,GI50,[44],0.342 µM
same,TGI,[44],> 100 µM
same,GI50,[45],1.35 µM
same,TGI,[45],> 100 µM
same,GI50,[46],51.7 µM
same,TGI,[46],> 100 µM
same,GI50,[47],15.4 µM
same,TGI,[47],59.8 µM
same,GI50,[48],0.782 µM
same,TGI,[48],> 100 µM
same,GI50,[49],2.06 µM
same,TGI,[49],> 100 µM
same,GI50,[50],0.586 µM
same,TGI,[50],16.4 µM
same,GI50,[51],20.4 µM
same,TGI,[51],> 100 µM
